From patent US10508085B2, “Compounds and methods for IDO and TDO modulation, and indications therefor” (Plexxikon Inc., priority 2016, dated 2019) come the findings set out here.

The target in test [1] is T1, Human Indoleamine 2,3-dioxygenase (IDO) (Homo sapiens, UniProt P14902).
T1 construct: His tag (N); made in house; host or cells: E. coli
In words: Human IDO enzymatic assay (kynurenine level). It is filed as biochemical. The conditions noted are these: 6 nM IDO, 10 μM L-Trp; geometric mean; read-out: IDO1 GMean: IC50 (μM) (Biochemical Assay). The method, boiled down:
(§1)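 N-terminally His-tagged enzymes expressed in E. coli were run in 50 mM sodium phosphate pH 6.5 with 10 mM ascorbate, catalase and Tween 20. IDO: 6 nM enzyme, 10 μM L-Trp, 5 μM methylene blue, 20 min RT. TDO: 1 nM enzyme, 350 μM L-Trp, 0.4 μM methylene blue, 70 min RT.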

The target in test [2] is T2, Human Tryptophan 2,3-dioxygenase (TDO) (Homo sapiens, UniProt P48775).
T2 construct: His tag (N); made in house; host or cells: E. coli
In words: Human TDO enzymatic assay (kynurenine level). It is filed as biochemical. The settings on record: 1 nM TDO, 350 μM L-Trp; geometric mean; read-out: TDO GMean: IC50 (μM) (Biochemical Assay). The method in brief: as §1

In test [3] the target is T3, human IDO (IDO1-expressing HEK293 cells) (Homo sapiens, UniProt P14902).
T3 construct: expressed in transfected cells
In words: Cell based kynurenine assay, IDO1-expressing HEK293 cell clones. The settings on record: IDO1-expressing HEK293 cells, 24 hours incubation; geometric mean; read-out: HEK293 IDO1 Kynurenine GMean IC50 (μM) (Cellular Assay). The method, boiled down: (§2)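 HEK293 stable clones (hIDO1 or hTDO, CMV-driven; G418-selected); 2.5×10^4 cells/well; compound serial dilution, 24 h, 37 °C, 5% CO2; supernatant kynurenine; IC50 by nonlinear fit.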

For test [4], the target named is T4, human TDO (TDO-expressing HEK293 cells) (Homo sapiens, UniProt P48775).
T4 construct: expressed in transfected cells
Put plainly: Cell based kynurenine assay, TDO-expressing HEK293 cell clones. The settings on record: TDO-expressing HEK293 cells, 24 hours incubation; geometric mean; read-out: HEK293 TDO Kynurenine GMean IC50 (μM) (Cellular Assay). The method, boiled down:
as §2

T4 sequence (P48775 whole entry): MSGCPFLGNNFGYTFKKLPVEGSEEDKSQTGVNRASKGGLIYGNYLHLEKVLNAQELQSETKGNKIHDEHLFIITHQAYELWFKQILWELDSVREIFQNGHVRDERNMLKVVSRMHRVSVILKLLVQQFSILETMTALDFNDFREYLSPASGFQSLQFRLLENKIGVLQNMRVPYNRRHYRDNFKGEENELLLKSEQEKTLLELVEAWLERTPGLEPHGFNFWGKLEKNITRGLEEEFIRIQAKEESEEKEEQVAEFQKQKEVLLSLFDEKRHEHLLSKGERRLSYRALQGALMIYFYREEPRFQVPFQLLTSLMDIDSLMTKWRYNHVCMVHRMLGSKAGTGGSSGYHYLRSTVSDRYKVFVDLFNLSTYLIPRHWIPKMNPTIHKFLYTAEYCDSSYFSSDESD
T2 sequence (P48775 whole entry): as above
T3 sequence (P14902 whole entry): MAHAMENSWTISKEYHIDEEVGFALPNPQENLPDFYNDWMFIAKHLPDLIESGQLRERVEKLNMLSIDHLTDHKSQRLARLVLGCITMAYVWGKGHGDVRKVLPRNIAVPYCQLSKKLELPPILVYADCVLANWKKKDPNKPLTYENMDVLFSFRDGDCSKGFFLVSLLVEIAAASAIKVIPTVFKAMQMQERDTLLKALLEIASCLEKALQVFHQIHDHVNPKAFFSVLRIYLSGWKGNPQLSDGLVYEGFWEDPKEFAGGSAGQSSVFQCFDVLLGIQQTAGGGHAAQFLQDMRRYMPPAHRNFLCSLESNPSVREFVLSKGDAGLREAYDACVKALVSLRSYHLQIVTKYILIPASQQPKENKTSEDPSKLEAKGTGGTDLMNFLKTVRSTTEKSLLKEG
T1 sequence (P14902 whole entry): as above

As usually defined, the IC50 is the point on the concentration scale where inhibition reaches its midpoint. `CC(C)(C(O)c1cc(Cl)cc2cn[nH]c12)C(F)(F)F` (stereo not shown) [Compound P-0250, 1-(5-chloro-1H-indazol-7-yl)-3,3,3-trifluoro-2,2-dimethylpropan-1-ol]: the IC50 in test [1], in test [2], in test [3] and in test [4] was 0.0001 to 10 µM in each case.

With `CC(C)(C1CCC1)C(O)c1c(F)c(Cl)c(F)c2cn[nH]c12` (stereo not shown) [Compound P-0251, 1-(5-chloro-4,6-difluoro-1H-indazol-7-yl)-2-cyclobutyl-2-methylpropan-1-ol], the 50% inhibitory concentration (IC50) in test [1], in test [2], in test [3] and in test [4] was 0.0001 to 10 µM in each case.

With `CC(C)(C1CCCC1)C(O)c1c(F)c(Cl)c(F)c2cn[nH]c12` (stereo not shown) [Compound P-0252, 1-(5-chloro-4,6-difluoro-1H-indazol-7-yl)-2-cyclopentyl-2-methylpropan-1-ol], the concentration for half-maximal inhibition (IC50) is 0.0001 to 10 µM in test [1], 0.0001 to 10 µM in test [2], 0.0001 to 10 µM in test [3] and above 10 µM in test [4].

On to `CC(C)(C1CCCCC1)C(O)c1c(F)c(Cl)c(F)c2cn[nH]c12` (stereo not shown) [Compound P-0253, 1-(5-chloro-4,6-difluoro-1H-indazol-7-yl)-2-cyclohexyl-2-methylpropan-1-ol], for which the concentration for half-maximal inhibition (IC50) in test [1], in test [2], in test [3] and in test [4] was 0.0001 to 10 µM each time.

For `CC(C)(CC1CCOCC1)C(O)c1cc(Cl)cc2cn[nH]c12` (stereo not shown) [Compound P-0254, 1-(5-chloro-1H-indazol-7-yl)-2,2-dimethyl-3-(tetrahydro-2H-pyran-4-yl)propan-1-ol], the IC50 in test [1], in test [2], in test [3] and in test [4] was 0.0001 to 10 µM in each case.

For the compound `CCC(C)(CC)C(O)c1cc(Cl)cc2cn[nH]c12` (stereo not shown) [Compound P-0255, 1-(5-chloro-1H-indazol-7-yl)-2-ethyl-2-methylbutan-1-ol], the 50% inhibitory concentration (IC50) in test [1], in test [2], in test [3] and in test [4] was 0.0001 to 10 µM throughout.

Regarding `CCC(CC)(CCC#N)C(O)c1cc(Cl)cc2cn[nH]c12` (stereo not shown) [Compound P-0256, 4-((5-chloro-1H-indazol-7-yl)(hydroxy)methyl)-4-ethylhexanenitrile], the IC50 in test [1], in test [2], in test [3] and in test [4] was 0.0001 to 10 µM each time.

As to `OC(c1c(F)c(Cl)cc2cn[nH]c12)C12CC3CC(CC(C3)C1)C2` [Compound P-0257, ((1S,3s)-adamantan-1-yl)(5-chloro-6-fluoro-1H-indazol-7-yl)methanol], the IC50 in test [1], in test [2], in test [3] and in test [4] was 0.0001 to 10 µM throughout.

On to `OC(c1c(F)c(Cl)cc2cn[nH]c12)C1CC2CCC1C2` (stereo not shown) [Compound P-0258, bicyclo[2.2.1]heptan-2-yl(5-chloro-6-fluoro-1H-indazol-7-yl)methanol], for which the IC50 in test [1], in test [2], in test [3] and in test [4] was 0.0001 to 10 µM throughout.

On to `CC(C1CC1)(C1CC1)C(O)c1cc(Cl)cc2cn[nH]c12` (stereo not shown) [Compound P-0259, 1-(5-chloro-1H-indazol-7-yl)-2,2-dicyclopropylpropan-1-ol], for which the half-inhibitory concentration (IC50) in test [1], in test [2], in test [3] and in test [4] was 0.0001 to 10 µM throughout.

Consider `CC(C1CC1)(C1CC1)C(O)c1c(F)c(Cl)cc2cn[nH]c12` (stereo not shown) [Compound P-0260, 1-(5-chloro-6-fluoro-1H-indazol-7-yl)-2,2-dicyclopropylpropan-1-ol], for which the IC50 in test [1], in test [2], in test [3] and in test [4] was 0.0001 to 10 µM in each case.

Consider `CC(C)(C1CCN(S(C)(=O)=O)CC1)C(O)c1c(F)c(Cl)cc2cn[nH]c12` (stereo not shown) [Compound P-0261, 1-(5-chloro-6-fluoro-1H-indazol-7-yl)-2-methyl-2-(1-(methylsulfonyl)piperidin-4-yl)propan-1-ol], for which the IC50 in test [1], in test [2], in test [3] and in test [4] was 0.0001 to 10 µM throughout.

For `OC(c1c(F)c(Cl)cc2cn[nH]c12)C(F)(F)C1CCOCC1` (stereo not shown) [Compound P-0262, 1-(5-chloro-6-fluoro-1H-indazol-7-yl)-2,2-difluoro-2-(tetrahydro-2H-pyran-4-yl)ethan-1-ol], the concentration for half-maximal inhibition (IC50) in test [1], in test [2], in test [3] and in test [4] was 0.0001 to 10 µM throughout.

On to `CC1(C(O)c2cc(Br)cc3cn[nH]c23)CCCCC1` (stereo not shown) [Compound P-0263, (5-bromo-1H-indazol-7-yl)(1-methylcyclohexyl)methanol], for which the half-maximal inhibitory concentration (IC50) in test [1], in test [2], in test [3] and in test [4] was 0.0001 to 10 µM in each case.

On to `CC1(C(O)c2c(F)c(Cl)c(F)c3cn[nH]c23)CCC1` (stereo not shown) [Compound P-0264, (5-chloro-4,6-difluoro-1H-indazol-7-yl)(1-methylcyclobutyl)methanol], for which the IC50 in test [1] was 0.0001 to 10 µM; in test [2], 0.0001 to 10 µM; in test [3], 0.0001 to 10 µM; in test [4] it was above 10 µM.

With `OC(c1c(F)c(Cl)c(F)c2cn[nH]c12)C1(C(F)(F)F)CCC1` (stereo not shown) [Compound P-0265, (5-chloro-4,6-difluoro-1H-indazol-7-yl)(1-(trifluoromethyl)cyclobutyl)methanol], the IC50 in test [1], in test [2], in test [3] and in test [4] was 0.0001 to 10 µM in each case.

With `O=S(=O)(c1ccccc1)C1(C(O)c2cc(Cl)cc3cn[nH]c23)CC1` (stereo not shown) [Compound P-0266, (5-chloro-1H-indazol-7-yl)(1-(phenylsulfonyl)cyclopropyl)methanol], the IC50 in test [1] was 0.0001 to 10 µM; in test [2], 0.0001 to 10 µM; in test [3], above 10 µM; in test [4], above 10 µM.

In the case of `CCC(CC)(CC)C(O)c1cc(Cl)cc2cn[nH]c12` (stereo not shown) [Compound P-0267, 1-(5-chloro-1H-indazol-7-yl)-2,2-diethylbutan-1-ol], the 50% inhibitory concentration (IC50) in test [1], in test [2], in test [3] and in test [4] was 0.0001 to 10 µM each time.

For `CCC(CC)C(O)c1cc(Cl)cc2cn[nH]c12` (stereo not shown) [Compound P-0268, 1-(5-chloro-1H-indazol-7-yl)-2-ethylbutan-1-ol], the IC50 in test [1], in test [2], in test [3] and in test [4] was 0.0001 to 10 µM each time.

As for `OC(c1cc(Cl)cc2cn[nH]c12)C12CCC(C(F)F)(CC1)CC2` (stereo not shown) [Compound P-0269, (5-chloro-1H-indazol-7-yl)(4-(difluoromethyl)bicyclo[2.2.2]octan-1-yl)methanol], the IC50 in test [1], in test [2], in test [3] and in test [4] was 0.0001 to 10 µM in each case.

As to `CS(=O)(=O)N1CCC(C(F)(F)C(O)c2cc(Cl)cc3cn[nH]c23)CC1` (stereo not shown) [Compound P-0270, 1-(5-chloro-1H-indazol-7-yl)-2,2-difluoro-2-(1-(methylsulfonyl)piperidin-4-yl)ethan-1-ol], the IC50 in test [1], in test [2], in test [3] and in test [4] was 0.0001 to 10 µM each time.

As for `CC(C)(C(O)c1cc(Cl)cc2cn[nH]c12)[C@H]1C[C@H]2CC[C@@H](C1)N2S(C)(=O)=O` (stereo partly drawn) [Compound P-0271, 1-(5-chloro-1H-indazol-7-yl)-2-methyl-2-((1R,3r,5S)-8-(methylsulfonyl)-8-azabicyclo[3.2.1]octan-3-yl)propan-1-ol], the 50% inhibitory concentration (IC50) in test [1], in test [2], in test [3] and in test [4] was 0.0001 to 10 µM throughout.

Regarding `CC(C)(C(O)c1cc(Cl)cc2cn[nH]c12)[C@@H]1C[C@H]2CC[C@@H](C1)N2S(C)(=O)=O` (stereo partly drawn) [Compound P-0272, 1-(5-chloro-1H-indazol-7-yl)-2-methyl-2-((1R,3s,5S)-8-(methylsulfonyl)-8-azabicyclo[3.2.1]octan-3-yl)propan-1-ol], the IC50 in test [1], in test [2], in test [3] and in test [4] was 0.0001 to 10 µM each time.

Consider `CC(C)(C)OC(=O)N1CC2CCC(C1)C2CC(O)c1cc(Cl)cc2cn[nH]c12` (stereo not shown) [Compound P-0273, tert-butyl 8-(2-(5-chloro-1H-indazol-7-yl)-2-hydroxyethyl)-3-azabicyclo[3.2.1]octane-3-carboxylate], for which the half-maximal inhibitory concentration (IC50) in test [1], in test [2], in test [3] and in test [4] was 0.0001 to 10 µM in each case.

As to `OC(CC1C2CCC1CNC2)c1cc(Cl)cc2cn[nH]c12` (stereo not shown) [Compound P-0274, 2-(3-azabicyclo[3.2.1]octan-8-yl)-1-(5-chloro-1H-indazol-7-yl)ethan-1-ol], the IC50 is 10 to 100 µM in test [1], 10 to 100 µM in test [2], above 10 µM in test [3] and above 10 µM in test [4].
